Data on twelve molecules can be found in patent publication US20150329558A1, “FUSED HETEROCYCLIC COMPOUNDS AS ION CHANNEL MODULATORS” (Gilead Sciences, Inc., priority 2011, published 2015).

Series [1] can be described thus: Microsomal stability assay, rat. Conditions: metabolic stability, rat liver microsomes 0.5 mg/mL, substrate 3 uM. Type of series: in vitro ADME. Put shortly:
(§1)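 Liver microsomes at 0.5 mg/mL protein in 100 mM KPO4 buffer, incubated with 3 uM compound and NADPH-regenerating system, run in duplicate. Samples taken at 2, 12, 25, 45 and 65 min and quenched in MeOH/ACN/water before analysis.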
A general note: Liver microsomes are a subcellular fraction often used to study metabolism.

For series [2], the target named is wild-type human cardiac sodium channel, hNav1.5 (late INa) (Homo sapiens, UniProt Q14524). In words: Late INa screening assay (QPatch whole cell patch clamp). The format is cell-based. In short, it runs like this: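 HEK293 cells stably expressing hNav1.5 alpha subunit without beta subunits, QPatch automated whole-cell clamp at 23-25° C, CsF-based internal solution pH 7.4. Late INa induced by 10 μM tefluthrin; 250 ms steps to −20 mV from −120 mV at 0.1 Hz, compounds at 1 μM. Percent block of mean current 225–250 ms into the step.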
On the technique in general: In patch-clamp work, channel activity is measured electrically.

Series [3] concerns the target wild-type human cardiac sodium channel, hNav1.5 (peak INa) (Homo sapiens, UniProt Q14524). Briefly: Peak INa screening assay (tonic and use-dependent block). Type of series: cell-based. As to the method: The late sodium current (Late INa) and peak sodium current (Peak INa) assays are performed on an automated electrophysiology platform, QPatch 16× (Sophion Bioscience, Copenhagen, Denmark), which uses the whole cell patch clamp technique to measure currents through the cell membrane of up to 16 cells at a time. The assay uses an HEK293 (human embryonic kidney) cell line heterologously expressing the wild-type human cardiac sodium channel, hNav1.5, purchased from Millipore (Billerica, Mass.). No beta subunits were coexpressed with the Na channel alpha subunit. Cells are maintained with standard tissue culture procedures and stable channel expression is maintained with 400 μg/mL Geneticin in the culture medium. […] Experiments are carried out at 23-25° C. For both the Late INa and Peak INa assays, series resistance compensation is set to 100% and series resistance and whole-cell compensation are performed automatically. Currents are digitized at 25 kHz and low-pass filtered at 12 kHz and 10 kHz for the late and peak INa assays, respectively. Currents through open sodium channels are automatically recorded and stored in the Sophion Bioscience Oracle database (Sophion Bioscience, Copehagen, Denmark). Analysis is performed using QPatch Assay and database software and data are compiled in Excel. Compound stocks are routinely made by the Gilead Sample Bank in plastic vials to 10 mM in dimethyl sulfoxide (DMSO). In some cases, when compounds are not soluble in DMSO, they are made in 100% ethanol. Stocks are sonicated as necessary. […] The intracellular solution used to perfuse the inside of the cells for both the Late INa and Peak INa assays contains: 120 mM CsF, 20 mM CsCl, 5 mM EGTA, 5 mM HEPES and pH adjusted to 7.4 with CsOH. Compounds are diluted in extracellular solution to 1 μM in glass vials and then transferred to glass well plates before robotic addition to the cells. […] Compounds were also evaluated for their effect in several other assays, including their effect on Peak INa. Good separation between the concentrations of test compound to reduce late and peak INa is beneficial to enable separation of the desired effect to reduce late INa-induced electrical and mechanical dysfunction from the undesired effect to reduce peak INa, which can lead to slowing or block of conduction of electrical excitation in the heart. It is contemplated that the compounds of Formula I avoid significant block of peak INa. Since the peak INa in the cells used herein can be very large, introducing artifacts in the recording, the concentration of Na^+ in the bath can be reduced to 20 mM and a nonpermeant cation added to compensate for the Na^+ that was removed to maintain the osmolarity and ionic strength of the solution (see solution details below). Analysis of peak INa generally requires correction for rundown before determining the % block of peak current by the tested compound. […] A low stimulation frequency of 0.1 Hz was used to determine the effect of the test compound when the channel spent most of the time in the resting (closed) state and provides information about Tonic Block (TB). A higher stimulation frequency (3 Hz) was used to measure block of the channel when it spent more time in the activated and inactivated states and provided a measure of Use-Dependent Block (UDB). Use-dependent block refers to the accumulation of block with increased frequency of channel activation. Block of cardiac peak INa by compounds of this invention is increased with an increase in the frequency of stimulation from 0.1 to 1-5 Hz (frequencies encountered either in the normal heart or during tachycardia). It is therefore expected that reduction of peak INa by compounds of this invention will be greater at high heart rates, such as those during tachyarrhythmias, than at normal heart rates. […]

Series [4] in a line: Microsomal stability assay, human. Conditions: metabolic stability, human liver microsomes 0.5 mg/mL, substrate 3 uM. The format is in vitro ADME. Put shortly: as §1
A short description of series [5]: Microsomal stability assay, dog. Type of series: in vitro ADME. Conditions: metabolic stability, dog liver microsomes 0.5 mg/mL, substrate 3 uM. In short, it runs like this:
as §1

[6] abbreviates: percent block of late INa, compound at 1 μM, 10 μM Tefluthrin, HEK293 hNav1.5, read-out: Late INa 1 μM.
[7] abbreviates: tonic block of peak INa, 0.1 Hz, 1 μM, read-out: Peak TB 1 μM.
Where [8] appears, read: use-dependent block of peak INa, 3 Hz, 1 μM, read-out: Peak UDB 1 μM.

Where two headings read alike, the source gives them in different places.

wild-type human cardiac sodium channel, hNav1.5 (peak INa), sequence (Q14524 whole entry): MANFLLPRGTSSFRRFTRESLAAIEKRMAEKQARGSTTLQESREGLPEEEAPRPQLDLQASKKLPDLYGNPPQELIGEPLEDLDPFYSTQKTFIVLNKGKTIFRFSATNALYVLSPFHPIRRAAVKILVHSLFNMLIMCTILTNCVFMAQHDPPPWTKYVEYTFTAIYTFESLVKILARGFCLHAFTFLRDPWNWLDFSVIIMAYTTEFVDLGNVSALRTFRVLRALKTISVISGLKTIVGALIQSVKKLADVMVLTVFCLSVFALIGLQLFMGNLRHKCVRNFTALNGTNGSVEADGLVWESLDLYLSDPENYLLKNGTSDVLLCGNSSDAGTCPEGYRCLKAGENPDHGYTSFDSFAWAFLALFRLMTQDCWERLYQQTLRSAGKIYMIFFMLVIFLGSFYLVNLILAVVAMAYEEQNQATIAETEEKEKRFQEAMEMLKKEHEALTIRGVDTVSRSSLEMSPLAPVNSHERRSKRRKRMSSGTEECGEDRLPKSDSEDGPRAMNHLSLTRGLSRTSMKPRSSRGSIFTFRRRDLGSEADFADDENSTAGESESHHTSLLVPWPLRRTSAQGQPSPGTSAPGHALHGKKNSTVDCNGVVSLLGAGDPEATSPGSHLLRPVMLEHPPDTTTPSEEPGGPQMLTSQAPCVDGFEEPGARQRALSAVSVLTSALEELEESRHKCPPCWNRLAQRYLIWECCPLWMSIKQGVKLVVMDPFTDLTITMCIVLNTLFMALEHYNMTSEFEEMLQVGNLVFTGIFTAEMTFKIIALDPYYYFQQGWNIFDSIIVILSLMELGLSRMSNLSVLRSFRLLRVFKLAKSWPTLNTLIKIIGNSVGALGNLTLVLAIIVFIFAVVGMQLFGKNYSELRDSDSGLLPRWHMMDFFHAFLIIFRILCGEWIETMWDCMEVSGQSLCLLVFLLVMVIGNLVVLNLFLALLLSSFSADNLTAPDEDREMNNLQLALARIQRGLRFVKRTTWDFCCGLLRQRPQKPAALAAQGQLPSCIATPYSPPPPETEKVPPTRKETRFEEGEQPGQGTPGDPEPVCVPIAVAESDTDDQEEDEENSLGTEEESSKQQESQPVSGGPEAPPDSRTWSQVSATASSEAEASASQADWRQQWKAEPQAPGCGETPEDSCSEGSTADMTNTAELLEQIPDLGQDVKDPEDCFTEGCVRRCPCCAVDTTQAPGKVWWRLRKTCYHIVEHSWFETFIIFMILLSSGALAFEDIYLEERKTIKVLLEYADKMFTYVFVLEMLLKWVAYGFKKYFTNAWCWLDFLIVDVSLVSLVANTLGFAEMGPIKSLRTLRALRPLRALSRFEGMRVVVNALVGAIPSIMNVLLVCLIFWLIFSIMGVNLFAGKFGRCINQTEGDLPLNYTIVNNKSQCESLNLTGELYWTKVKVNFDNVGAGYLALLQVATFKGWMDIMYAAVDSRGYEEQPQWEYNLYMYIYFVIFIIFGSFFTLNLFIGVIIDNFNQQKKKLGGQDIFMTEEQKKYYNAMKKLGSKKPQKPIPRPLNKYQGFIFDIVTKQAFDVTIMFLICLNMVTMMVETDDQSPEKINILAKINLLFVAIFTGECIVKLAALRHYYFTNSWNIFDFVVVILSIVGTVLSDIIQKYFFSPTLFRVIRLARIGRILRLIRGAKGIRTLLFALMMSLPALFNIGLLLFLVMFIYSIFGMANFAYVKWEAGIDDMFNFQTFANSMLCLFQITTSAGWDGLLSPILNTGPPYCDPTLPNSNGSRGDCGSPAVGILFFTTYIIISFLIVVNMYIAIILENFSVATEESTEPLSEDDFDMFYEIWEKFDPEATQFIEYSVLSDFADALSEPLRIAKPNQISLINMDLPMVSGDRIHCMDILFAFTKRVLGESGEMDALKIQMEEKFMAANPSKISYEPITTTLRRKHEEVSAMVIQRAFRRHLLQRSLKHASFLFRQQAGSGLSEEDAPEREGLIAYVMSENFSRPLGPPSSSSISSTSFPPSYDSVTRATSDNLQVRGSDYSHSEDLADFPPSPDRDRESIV
wild-type human cardiac sodium channel, hNav1.5 (late INa), sequence (Q14524 whole entry): as above

In turn, `O=c1c2cc(-c3ccc(Oc4ccc(Cl)cc4)cc3)ccc2nnn1CCn1cccn1` [II-29, 3-(2-(1H-pyrazol-1-yl)ethyl)-6-(4-(4-chlorophenoxyl)phenyl)benzo[d][1,2,3]triazin-4(3H)-one] came in with an MS Rat THalf in series [1] of 27 min. The figures for the inhibition at 1 µM in series [2] (setting [6]), in series [3] (setting [7]) and in series [3] (setting [8]) were 52%, 44% and 67%, respectively. Also, the MS Human THalf in series [4] came to 51 min. The molecule also displayed an MS Dog THalf in series [5] of 99 min.
The molecule `Cc1nccn1CC1(Cn2nnc3ccc(-c4ccc(OC(F)(F)F)cc4)cc3c2=O)CC1` [II-34, 3-((1-((2-methyl-1H-imidazol-1-yl)methyl)cyclopropyl)methyl)-6-(4-(trifluoromethoxy)phenyl)benzo[d][1,2,3]triazin-4(3H)-one] had an MS Rat THalf in series [1] of 2 min. The inhibition at 1 µM in series [2] (setting [6]) came to 48%; in series [3] (setting [7]) it was 27%; in series [3] (setting [8]), 34%. The MS Human THalf in series [4] was determined as 2 min. Further, the MS Dog THalf in series [5] worked out at 2 min.
In turn, `COc1cc(OC)nc(Cn2nnc3ccc(-c4ccc(OC(F)(F)F)cc4)cc3c2=O)n1` [II-44, 3-((4,6-dimethoxypyrimidin-2-yl)methyl)-6-(4-(trifluoromethoxy)phenyl)benzo[d][1,2,3]triazin-4(3H)-one] came in with an MS Rat THalf in series [1] of 97 min. Further, the inhibition at 1 µM in series [2] (setting [6]) stood at 47%; in series [3] (setting [7]) it was 10%; in series [3] (setting [8]), 4%. Further, the MS Human THalf in series [4] was determined as 167 min. The MS Dog THalf in series [5] turned out to be 283 min.
`O=c1c2cc(-c3ccc(OC(F)(F)F)cc3)ccc2nnn1Cc1cc(-c2ccccn2)on1` [II-47, 3-((5-(pyridin-2-yl)isoxazol-3-yl)methyl)-6-(4-(trifluoromethoxy)phenyl)benzo[d][1,2,3]triazin-4(3H)-one] registered an MS Rat THalf in series [1] of 71 min. Also, the results for the inhibition at 1 µM in series [2] (setting [6]), in series [3] (setting [7]) and in series [3] (setting [8]) were 44%, 6% and 4%, respectively. In addition, in series [4], the MS Human THalf came to 339 min. The molecule further returned an MS Dog THalf in series [5] of 24 min.
In turn, `COC(=O)C1(Cn2nnc3ccc(-c4ccc(OC(F)(F)F)cc4)cc3c2=O)CC1` [II-55, methyl 1-((4-oxo-6-(4-(trifluoromethoxy)phenyl)benzo[d][1,2,3]triazin-3 (4H)-yl)methyl)cyclopropanecarboxylate] had an MS Rat THalf in series [1] of 2 min. The inhibition at 1 µM in series [2] (% inhibition at 1 μM, read-out: NAv1.5*-LATE-) stood at 58%; in series [2] (setting [6]), 58%; in series [3] (% inhibition at 1 μM, tonic block, read-out: NAv1.5*-PEAK-TB-), 7%; in series [3] (% inhibition at 1 μM, use-dependent block 3 Hz, read-out: NAv1.5*-PEAK-UDB-3 HZ-), 3%; in series [3] (setting [7]) it was 7%; in series [3] (setting [8]), 3%. In series [4], this molecule returned an MS Human THalf of 14 min. The MS Dog THalf in series [5] was 2 min.
In series [1], `O=c1c2cc(-c3ccc(OC(F)(F)F)cc3)ccc2nnn1CC1(CN2CCCC2)CC1` [II-63, 3-((1-(pyrrolidin-1-ylmethyl)cyclopropyl)methyl)-6-(4-(trifluoromethoxy)phenyl)benzo[d][1,2,3]triazin-4(3H)-one] came in with an MS Rat THalf of 31 min. Further, the inhibition at 1 µM came out at 46% in series [2] (setting [6]), 23% in series [3] (setting [7]) and 50% in series [3] (setting [8]). Besides, the MS Human THalf in series [4] came out at 34 min. The molecule also came in with an MS Dog THalf in series [5] of 36 min.
Turning to `Cc1cc(C)n(CC2(Cn3nnc4ccc(-c5ccc(OC(F)(F)F)cc5)cc4c3=O)CC2)n1` [II-64, 3-((1-((3,5-dimethyl-1H-pyrazol-1-yl)methyl)cyclopropyl)methyl)-6-(4-(trifluoromethoxy)phenyl)benzo[d][1,2,3]triazin-4(3H)-one], in series [1], the MS Rat THalf was found to be 16 min. Further, the values for the inhibition at 1 µM in series [2] (setting [6]), in series [3] (setting [7]) and in series [3] (setting [8]) were 43%, 3% and 9%, respectively. The molecule also showed an MS Human THalf in series [4] of 11 min. Besides, in series [5], the MS Dog THalf was determined as 7 min.
In the case of `Cc1noc(Cn2nnc3ccc(-c4ccc(C5CC5)cc4)cc3c2=O)n1` [II-73, 6-(4-cyclopropylphenyl)-3-((3-methyl-1,2,4-oxadiazol-5-yl)methyl)benzo[d][1,2,3]triazin-4(3H)-one], the MS Rat THalf in series [1] was determined as 29 min. The inhibition at 1 µM stood at 45% in series [2] (setting [6]), 6% in series [3] (setting [7]) and 1% in series [3] (setting [8]). Moreover, the MS Human THalf in series [4] is 16 min. The molecule further showed an MS Dog THalf in series [5] of 5 min.
Turning to `O=c1c2cc(-c3ccc(OC(F)(F)F)cc3)ccc2nnn1CC1(CO)CC1` [II-75, 3-((1-(hydroxymethyl)cyclopropyl)methyl)-6-(4-(trifluoromethoxy)phenyl)benzo[d][1,2,3]triazin-4(3H)-one], the MS Rat THalf in series [1] was found to be 75 min. In addition, the inhibition at 1 µM in series [2] (setting [6]) came to 53%; in series [3] (setting [7]) it was 11%; in series [3] (setting [8]), 7%. This molecule displayed an MS Human THalf in series [4] of 371 min. In series [5], this molecule displayed an MS Dog THalf of 85 min.
In series [1], `O=c1c2cc(-c3ccc(OC(F)(F)F)cc3)ccc2nnn1CC1(COc2ncccn2)CC1` [II-80, 3-((1-((pyrimidin-2-yloxy)methyl)cyclopropyl)methyl)-6-(4-(trifluoromethoxy)phenyl)benzo[d][1,2,3]triazin-4(3H)-one] returned an MS Rat THalf of 34 min. Further, the values for the inhibition at 1 µM in series [2] (setting [6]), in series [3] (read-out: Peak TB 1 μM) and in series [3] (read-out: Peak UDB 1 μM) were 42%, 8% and 7%, respectively. In series [4], the MS Human THalf was found to be 49 min. Further, in series [5], the MS Dog THalf came out at 85 min.
In turn, `Cc1cnc(Cn2nnc3ccc(-c4ccc(OC(F)(F)F)cc4)cc3c2=O)o1` [II-96, 3-((5-methyloxazol-2-yl)methyl)-6-(4-(trifluoromethoxy)phenyl)benzo[d][1,2,3]triazin-4(3H)-one] registered an MS Rat THalf in series [1] of 34 min. The inhibition at 1 µM in series [2] (setting [6]) was found to be 51%; in series [3] (setting [7]), 10%; in series [3] (setting [8]), 5%. This molecule showed an MS Human THalf in series [4] of 84 min. Also, the MS Dog THalf in series [5] worked out at 81 min.
Regarding `Cc1coc(Cn2nnc3ccc(-c4ccc(OC(F)(F)F)cc4)cc3c2=O)n1` [II-97, 3-((4-methyloxazol-2-yl)methyl)-6-(4-(trifluoromethoxy)phenyl)benzo[d][1,2,3]triazin-4(3H)-one], in series [1], the MS Rat THalf is 24 min. The inhibition at 1 µM in series [2] (setting [6]) was found to be 54%; in series [3] (setting [7]), 12%; in series [3] (setting [8]) it was 7%. This molecule yielded an MS Human THalf in series [4] of 206 min. In series [5], this molecule came in with an MS Dog THalf of 63 min.
